Laboratory results from patent US20060293395A1, “Methods for treating a mammal before, during and after cardiac arrest” (priority 2004, published 2006).
Entries after “also recorded” stand apart in the source; their conditions may differ.

Experiments:
[1] = test system: male domestic pigs; test: Levosimendan on post-resuscitation myocardial function after beta-adrenergic blockade (propranolol); assay type: in vivo, pig
Experimental: Anesthesia was initiated by intramuscular injection of ketamine (20 mg/kg) and completed by ear vein injection of sodium pentobarbital (30 mg/kg). Additional doses of sodium pentobarbital (8 mg/kg) were injected to maintain anesthesia at intervals of one hour. A cuffed endotracheal tube was advanced into the trachea. Animals were mechanically ventilated with a volume-controlled ventilator (Model MA-1, Puritan-Bennett, Carlsbad, Calif.) with a tidal volume of 15 mL/kg, peak flow of 40 L/min, and FiO2 of 0.21. End-tidal PCO2 (ETCO2) was monitored with an infrared analyzer (Model 01R-7101A, Nihon Kohden Corp, Tokyo, Japan). Respiratory frequency was adjusted to maintain PETCO2 between 35 and 40 mm Hg.
For the measurement of left ventricular functions, a 5.5/7.5 […] biplane with Doppler transesophageal echocardiographic transducer with 4-way flexure (Model 21363A, Hewlett-Packard Co., Medical Products Group, Andover, Mass.) was advanced from the incisor teeth into the esophagus for a distance of approximately 35 cm. For the measurement of aortic pressure, a fluid-filled catheter was advanced from the left femoral artery into the thoracic aorta. For the measurements of right atrial, pulmonary arterial pressures and blood temperature, a 7-French, pentalumen, thermodilution-tipped catheter was advanced from the left femoral vein and flow-directed into the pulmonary artery. A 7-French catheter was advanced from the left cephalic vein into the great cardiac vein for the measurement of great cardiac vein blood gases and lactate. For inducing VF, a 5-French pacing catheter (EP Technologies, Inc., Mountain View, Calif.) was advanced from the right cephalic vein into the right ventricle.
The investigators were blinded to the randomization. Cardiac arrest was induced with 1 to 2 mA AC delivered to the endocardium of the right ventricle. Mechanical ventilation was discontinued after onset of VF. At the end of the 7-min interval of untreated VF, precordial compression was started with a pneumatic piston-driven chest compressor (Thumper, Model 1000, Michigan Instruments, Grand Rapids, Mich.). […] The compression force was adjusted to decrease the anterior-posterior diameter of the chest by 25%. After 5 min of precordial compression, defibrillation was attempted with a 150 J biphasic waveform shock delivered between the right infraclavicular area and the cardiac apex. If an organized cardiac rhythm with mean aortic pressure of more than 60 mm Hg persisted for an interval of 5 min or more, the animal was regarded as successfully resuscitated. All animals had restoration of spontaneous circulation (ROSC) after electrical defibrillation, and were then randomized to three treatment groups: (1) propranolol (0.1 mg/kg bolus at 6 min of VF); (2) propranolol plus levosimendan (at 10 min after post resuscitation, 20 μg/kg over 10 min followed by 0.4 μg/kg/min for 220 min); and (3) equal volumes of saline as placebo.
Measurements were obtained over an interval of 4 hours following resuscitation. After 4 hours, animals were euthanized by intravenous injection of 150 mg kg^−1 pentobarbital. Autopsy was performed to document injuries to the bony thorax and the thoracic and abdominal viscera.

[2] = test system: Male Sprague-Dawley rats; test: Example 1: post-resuscitation myocardial dysfunction after VF cardiac arrest, drug infusion for 240 min post-resuscitation
[3] = test system: Male Sprague-Dawley rats; test: Example 2: dobutamine vs levosimendan for post-resuscitation myocardial failure, 8 min untreated VF + 6 min precordial compression; assay type: in vivo, rat
Experimental: The animals were anesthetized following intraperitoneal injection of 45 mg kg^−1 pentobarbital. […] No anesthetic agent was administrated during the 30 minute interval prior to inducing cardiac arrest.
Pressures were measured with a high sensitivity pressure transducer (Model 42584-01; Abbott Critical Care System, North Chicago, Ill.). The optimally damped frequency response of the system was 22 Hz. […] Guided by pressure monitoring, the catheter was slowly withdrawn into the right atrium. Right atrial pressure was measured with reference to the mid-chest with another high sensitivity pressure transducer (Abbott model 42584-01). This catheter also served as an injection site for the thermal tracer. A 4 F polyethylene catheter (model C-PMS401J; Cook Critical Care, Bloomington, Ind.) was advanced through the right external jugular vein into the right atrium. A precurved guide wire supplied with the catheter was then advanced through the catheter into the right ventricle until an endocardial electrogram was observed. Another 23-gauge polyethylene catheter (PE 50) was advanced through the left femoral artery into the abdominal aorta for measurement of aortic pressure with the same Abbott high sensitivity transducer and also for sampling arterial blood. […] The thermocouple provided for measurements of blood temperature and thermodilution cardiac output. […] An additional PE 50 catheter was advanced into right femoral vein for drug infusion. EKG lead II was continuously recorded.
Experimental Procedure: A total of 15 animals were investigated. The investigators were blinded to the intervention until immediately prior to inducing VF, at which time the principal investigator opened a sealed envelope for assignment to one of three groups: (1) levosimendan (2) dobutamine or (3) saline placebo. This allowed time for preparation of a fresh dilution of the selected drug. […] Current flow was continued for 3 minutes to prevent spontaneous defibrillation as previously described (Von Planta I, Weil MH. Cardiopulmonary resuscitation in the rat. J Appl Physiol. 1988;65(6):2641-2647). Ventilation was discontinued after onset of VF. Precordial compression was begun with a pneumatically driven mechanical chest compressor after 8 minutes of untreated VF and continued for 6 minutes. These methods have been extensively exercised and have been well-documented (see Von Plata I (supra)) and Sun SJ, Weil MH, Tang W, et al. Combined effects of buffer and adrenergic agent on postresuscitation myocardial function. J Pharm Exp Ther. 1999;291 :773-777). Coincident with the start of precordial compression, the animals were mechanically ventilated. Tidal volume was established at 6.5 ml per kg animal weight, a frequency of 100 min^−1, and on a FiO2 of 1.0.

[4] = test system: male domestic pigs; test: Example 3: dobutamine vs levosimendan in the porcine model of cardiac arrest and cardiac resuscitation; assay type: in vivo, pig
Experimental: Experimental Preparation: The experiments were performed in the porcine model of cardiac arrest and cardiac resuscitation which has been extensively exercised. (21,22). […] Anesthesia was initiated by intramuscular injection of ketamine (20 mg kg^−1) and was completed by ear vein injection of sodium pentobarbital (30 mg kg^−1). Additional 8 mg kg^−1 doses of sodium pentobarbital were injected to maintain anesthesia at intervals of one hour. A cuffed endotracheal tube was advanced into the trachea. Animals were mechanically ventilated with a volume of 15 mL kg^−1, peak airway flow of 40 L min^−1, and FiO2 of 0.2 with the aid of a volume-controlled ventilator (Model MA-1, Puritan-Bennett, Carlsbad, Calif.). End-tidal PCO2 (PETCO2) was monitored with an infrared analyzer (Model 01R-7101A, Nihon Kohden Corp, Tokyo, Japan). Respiratory frequency was adjusted to maintain PETCO2 between 35 and 40 mmHg. Blood temperature was maintained at 37±0.5° C. with the aid of infrared heating lamps, as required.
For the measurement of left ventricular functions, a 5.5/7.5 MHz biplane with pulse-wave Doppler transesophageal echocardiographic tranducer with 4-way flexure (Model 21363A, Hewlett-Packard Co. Medical Products Group, Andover, Mass.) was advanced from the incisor teeth into the esophagus for a distance of approximately 40 cm. For the measurement of aortic pressure, a fluid filled catheter was advanced from the surgically exposed left femoral artery into the thoracic aorta. For measurements of right atrial and pulmonary arterial pressures, blood temperature and cardiac output, a 7-French, pentalumen, thermodilution-tipped catheter was advanced from the surgically exposed left femoral vein and flow-directed into the pulmonary artery. For inducing VF, a 5-French pacing catheter (EP Techologies, Inc., Mountain View, Calif.) was advanced from the surgically exposed right cephalic vein into the right ventricle. […] This catheter was then looped laterally and advanced inferiorly for a distance of 5 cm into the great cardiac vein for sampling of coronary venous blood. The electrocardiographic (EKG) lead II was continuously recorded.
Experimental procedure: A total 15 animals were investigated. […] Cardiac arrest was induced with 1 to 2 mA AC delivered to the endocardium of the right ventricle. Mechanical ventilation was discontinued after onset of VF. At the end of a 7-minute interval of untreated VF, precordial compression (PC) was started with a pneumatic piston-driven chest compressor (Thumper, Model 1000, Michigan Instruments, Grand Rapids, Mich.). Coincident with the start of PC, the animal was mechanically ventilated with a tidal volume of […] and FiO2 of 1.0. […] The compression force was adjusted to decrease the anterior-posterior diameter of the chest by 25%. After 5 minutes of PC, defibrillation was attempted with a 150 J biphasic waveform shock delivered between the right infraclavicular area and the cardiac apex. If an organized cardiac rhythm with mean aortic pressure of more than 60 mm Hg persisted for an interval of 5 minutes or more, the animal was regarded as successfully resuscitated. At 10 minutes after restoration of spontaneous circulation (ROSC), one of the three interventions was begun. […] Levosimendan diluted in physiological salt solution was administered in a loading dose of 20 μg kg^−1, infused over 10 minutes, followed by infusion of 0.4 μg kg^−1 min^−1 also in physiologic salt solution for a total duration of 230 minutes.

[5] = compared to saline placebo / control (FIG. 27)

SMILES	postresuscitation ST segment elevation in ECG limb lead 2 ([1]; 5 min after resuscitation (FIG. 26))	number of postresuscitation premature ventricular beats ([1]; 5 min interval after ROSC (FIG. 26))	FAC [1, 5]	Postresuscitation ejection fractions (EF) [1, 5]	total energies of electrical shocks ([1]; propranolol 0.1 mg/kg bolus at 6 min of VF)	number of electrical shocks ([1]; propranolol 0.1 mg/kg bolus at 6 min of VF (FIG. 26))	arterial pressures ([2]; among the three groups, at PR10 and after administration of the drugs (FIG. 4))	heart rate ([2]; post-resuscitation (FIG. 5))	cardiac index ([2]; post-resuscitation (FIG. 6))	lusitropic (relaxation) effect ([2]; post-resuscitation (FIG. 10))	stroke volume ([2]; post-resuscitation, initially (FIG. 7))	heart rate ([3]; after administration, post-resuscitation)	mean arterial pressure (MAP) ([3]; between the three groups)	duration of survival ([3]; observed over 72 hours, least with saline placebo (FIG. 15))	cardiac index ([3]; post-resuscitation (FIG. 13))	dP/dt40 ([3]; vs saline placebo (FIG. 14))	−dP/dt ([3]; vs saline placebo (FIG. 14))	heart rate ([4]; among the three groups)	arterial pressure ([4]; between levosimendan and dobutamine)	cardiac output ([4]; vs saline placebo (FIG. 16))
CC(C)NCC(O)COc1cccc2ccccc12 (centres unmarked) [propranolol]	lesser; also recorded: significantly improved	significantly lesser number; also recorded: significantly improved	significantly increased; also recorded: significantly greater	significantly increased; also recorded: significantly greater	significantly lesser total energies	significantly smaller number; also recorded: significantly improved														
CC(CCc1ccc(O)cc1)NCCc1ccc(O)c(O)c1 (centres unmarked) [Dobutamine]							No significant differences	increases in heart rate of borderline significance	comparable increases in cardiac index	more profound lusitropic (relaxation) effect	significantly greater stroke volumes	moderate increase in heart rate	no significant differences	intermediate	significant increases in cardiac index	Significantly greater	Significantly greater	did not differ	no differences in arterial pressure	Significantly greater cardiac output
